Seven compounds from ChEMBL document CHEMBL6071206, “Development of BODIPY FL SNS 032 as a Versatile Probe for Constitutive Androstane Receptor and Multiple Kinases” (ACS Med Chem Lett, 2024) can be followed below.

Active and inactive are the calls of the source. No cut-off for these calls is given here.

Series [1] concerns the target T1, Nuclear receptor subfamily 1 group I member 3 (Homo sapiens, UniProt Q14994).
T1 sequence (Q14994 whole entry): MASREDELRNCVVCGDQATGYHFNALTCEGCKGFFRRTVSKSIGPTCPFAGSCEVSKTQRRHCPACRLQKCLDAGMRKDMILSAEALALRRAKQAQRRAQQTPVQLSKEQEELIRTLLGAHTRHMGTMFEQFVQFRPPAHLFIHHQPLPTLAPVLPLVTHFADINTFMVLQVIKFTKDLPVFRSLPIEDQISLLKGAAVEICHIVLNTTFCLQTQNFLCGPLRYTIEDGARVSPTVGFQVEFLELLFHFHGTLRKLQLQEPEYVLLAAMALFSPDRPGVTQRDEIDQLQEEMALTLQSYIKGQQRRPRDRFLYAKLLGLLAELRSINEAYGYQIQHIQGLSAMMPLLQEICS
As to the kind of experiment: Inhibition of GST-tagged human CAR LBD incubated for 90 mins by TR-FRET assay. A general note: In TR-FRET formats the signal depends on donor and acceptor labels being close together.

In series [2] the target is T1, Nuclear receptor subfamily 1 group I member 3. The series is described as follows: Inhibition of GST-tagged human CAR LBD at 30 uM incubated for 90 mins in presence of Cy5-PGC1-alpha by HTRF co-activator assay relative to control. The conditions noted are these: 1.5 h, read-out: Imax.
Series [3] has the same target. The series is described as follows: Inhibition of GST-tagged human CAR LBD incubated for 90 mins in presence of Cy5-PGC1-alpha by HTRF co-activator assay.
Series [4] shares this target. As to the kind of experiment: Inhibition of GST-tagged human CAR LBD at […] incubated for 90 mins in presence of Cy5-PGC1-alpha by HTRF co-activator assay relative to control. The note with it: 1.5 h, dose 3.3 µM, read-out: Imax.
Series [5] addresses T2, Mitogen-activated protein kinase 15 (Homo sapiens, UniProt Q8TD08).
T2 sequence (Q8TD08 whole entry): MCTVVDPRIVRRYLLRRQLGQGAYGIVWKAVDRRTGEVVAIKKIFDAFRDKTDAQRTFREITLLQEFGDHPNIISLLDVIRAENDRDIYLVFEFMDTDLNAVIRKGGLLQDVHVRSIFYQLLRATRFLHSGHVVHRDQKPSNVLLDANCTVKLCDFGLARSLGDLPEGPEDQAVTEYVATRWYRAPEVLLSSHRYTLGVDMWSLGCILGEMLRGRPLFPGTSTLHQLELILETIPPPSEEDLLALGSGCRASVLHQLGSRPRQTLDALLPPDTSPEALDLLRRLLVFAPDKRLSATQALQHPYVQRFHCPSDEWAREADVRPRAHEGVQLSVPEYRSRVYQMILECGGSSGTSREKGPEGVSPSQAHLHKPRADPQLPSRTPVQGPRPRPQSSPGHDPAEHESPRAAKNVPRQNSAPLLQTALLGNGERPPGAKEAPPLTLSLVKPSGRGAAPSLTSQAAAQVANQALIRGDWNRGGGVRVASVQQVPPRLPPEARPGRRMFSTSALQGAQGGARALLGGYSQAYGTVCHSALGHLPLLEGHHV
The series is described as follows: Binding affinity to Flag/His-tagged human MAPK15 assessed as dissociation constant incubated for 90 mins by TR-FRET assay.

Series [6] has as its target CDK9/cyclin T1 (Homo sapiens, UniProt P50750). The series is described as follows: Binding affinity to His-tagged human CDK9/CycT1 assessed as dissociation constant incubated for 90 mins by TR-FRET assay. The series is classed as protein-complex assay.
For series [7], the target named is T1, Nuclear receptor subfamily 1 group I member 3. As to the kind of experiment: Binding affinity to GST-tagged human CAR LBD assessed as dissociation constant incubated for 90 mins by TR-FRET assay.
Series [8] has as its target T3, Calcium/calmodulin-dependent protein kinase kinase 2 (Homo sapiens, UniProt Q96RR4). The series is described as follows: Binding affinity to GST-tagged human CAMKK2 assessed as dissociation constant incubated for 90 mins by TR-FRET assay.
Series [9] has as its target T4, Glycogen synthase kinase-3 alpha (Homo sapiens, UniProt P49840). As to the kind of experiment: Binding affinity to GST-tagged human GSK3A assessed as dissociation constant incubated for 90 mins by TR-FRET assay.
Series [10] deals with T5, Peripheral plasma membrane protein CASK (Homo sapiens, UniProt O14936).
T5 sequence (O14936 whole entry): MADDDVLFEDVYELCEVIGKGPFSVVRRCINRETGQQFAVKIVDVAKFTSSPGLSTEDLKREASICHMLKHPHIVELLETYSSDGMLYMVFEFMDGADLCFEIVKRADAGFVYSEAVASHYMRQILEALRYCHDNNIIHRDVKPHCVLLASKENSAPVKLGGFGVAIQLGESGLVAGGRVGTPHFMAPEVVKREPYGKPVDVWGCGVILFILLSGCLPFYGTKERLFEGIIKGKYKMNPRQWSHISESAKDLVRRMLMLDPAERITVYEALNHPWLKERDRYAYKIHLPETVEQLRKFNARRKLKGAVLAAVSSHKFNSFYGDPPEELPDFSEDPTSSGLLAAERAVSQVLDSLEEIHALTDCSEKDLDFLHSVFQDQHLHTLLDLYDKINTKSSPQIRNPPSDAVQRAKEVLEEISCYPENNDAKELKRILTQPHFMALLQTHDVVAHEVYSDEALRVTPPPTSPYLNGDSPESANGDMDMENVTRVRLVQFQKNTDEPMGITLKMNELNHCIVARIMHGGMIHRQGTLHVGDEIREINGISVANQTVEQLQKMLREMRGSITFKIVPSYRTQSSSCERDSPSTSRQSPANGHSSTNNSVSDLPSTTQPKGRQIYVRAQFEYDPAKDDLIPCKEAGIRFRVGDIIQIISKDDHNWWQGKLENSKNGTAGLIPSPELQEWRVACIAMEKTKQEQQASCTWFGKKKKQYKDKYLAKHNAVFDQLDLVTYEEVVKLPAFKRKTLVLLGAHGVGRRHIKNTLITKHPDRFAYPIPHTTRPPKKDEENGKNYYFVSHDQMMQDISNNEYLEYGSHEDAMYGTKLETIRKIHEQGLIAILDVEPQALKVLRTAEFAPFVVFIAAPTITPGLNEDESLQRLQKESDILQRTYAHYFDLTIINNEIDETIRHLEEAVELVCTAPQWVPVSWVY
The series is described as follows: Binding affinity to GST-tagged human CASK assessed as dissociation constant incubated for 90 mins by TR-FRET assay.

For series [11], the target named is T1, Nuclear receptor subfamily 1 group I member 3. As to the kind of experiment: Binding affinity to GST-tagged human CAR LBD assessed as fold change in FRET signal at 298.2 nM incubated for 90 mins by TR-FRET assay relative to control. The note with it: 1.5 h, 0.2982 µM.
For series [12] the target is unchanged. The series is described as follows: Binding affinity to GST-tagged human CAR LBD assessed as fold change in FRET signal at 125 nM incubated for 90 mins by TR-FRET assay relative to control. The note with it: 1.5 h, 0.125 µM.
Series [13] deals with T6, Dual specificity tyrosine-phosphorylation-regulated kinase 2 (Homo sapiens) (UniProt Q92630).
T6 sequence (whole entry): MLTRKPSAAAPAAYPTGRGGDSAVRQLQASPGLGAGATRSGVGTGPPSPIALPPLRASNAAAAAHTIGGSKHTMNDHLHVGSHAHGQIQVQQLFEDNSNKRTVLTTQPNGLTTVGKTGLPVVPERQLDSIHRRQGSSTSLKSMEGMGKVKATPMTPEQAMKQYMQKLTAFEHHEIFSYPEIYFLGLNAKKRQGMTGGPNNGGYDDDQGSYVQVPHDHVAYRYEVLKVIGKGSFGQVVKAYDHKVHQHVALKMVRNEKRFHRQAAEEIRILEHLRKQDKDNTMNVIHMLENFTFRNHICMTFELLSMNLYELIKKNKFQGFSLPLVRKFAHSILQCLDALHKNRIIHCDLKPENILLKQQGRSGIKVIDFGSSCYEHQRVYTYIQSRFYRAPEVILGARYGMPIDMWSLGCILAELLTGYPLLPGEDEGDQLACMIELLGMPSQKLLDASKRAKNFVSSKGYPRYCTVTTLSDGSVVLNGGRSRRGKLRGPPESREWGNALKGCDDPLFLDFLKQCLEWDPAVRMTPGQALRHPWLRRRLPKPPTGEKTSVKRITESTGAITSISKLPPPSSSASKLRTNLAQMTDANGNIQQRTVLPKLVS
The series is described as follows: Binding affinity to GST-tagged human DYRK2 incubated for 90 mins by TR-FRET assay.

For series [14], the target named is T3, Calcium/calmodulin-dependent protein kinase kinase 2. The series is described as follows: Inhibition of GST-tagged human CAMKK2 incubated for 90 mins by TR-FRET assay.
Series [15] has as its target T4, Glycogen synthase kinase-3 alpha. As to the kind of experiment: Inhibition of GST-tagged human GSK3A incubated for 90 mins by TR-FRET assay.
Series [16] has as its target T2, Mitogen-activated protein kinase 15. The series is described as follows: Inhibition of Flag/His-tagged human MAPK15 incubated for 90 mins by TR-FRET assay.
Series [17] concerns the target T1, Nuclear receptor subfamily 1 group I member 3. The series is described as follows: Inhibition of GST-tagged human CAR LBD at 3 uM incubated for 90 mins in presence of Cy5-PGC1-alpha by HTRF co-activator assay relative to control. The conditions noted are these: 1.5 h, read-out: Imax.
Series [18] shares this target. The series is described as follows: Inhibition of GST-tagged human CAR LBD assessed as FRET signal stability measured for 90 to 180 mins incubated for 90 mins by TR-FRET assay. The note with it: time 90-180 min.
The target in series [19] is T7, Peripheral plasma membrane protein CASK (Homo sapiens) (UniProt O14936).
T7 sequence (whole entry): T5 sequence (O14936 whole entry)
The series is described as follows: Inhibition of GST-tagged human CASK at 90 uM incubated for 90 mins by TR-FRET assay relative to control.

T4 sequence (P49840 whole entry): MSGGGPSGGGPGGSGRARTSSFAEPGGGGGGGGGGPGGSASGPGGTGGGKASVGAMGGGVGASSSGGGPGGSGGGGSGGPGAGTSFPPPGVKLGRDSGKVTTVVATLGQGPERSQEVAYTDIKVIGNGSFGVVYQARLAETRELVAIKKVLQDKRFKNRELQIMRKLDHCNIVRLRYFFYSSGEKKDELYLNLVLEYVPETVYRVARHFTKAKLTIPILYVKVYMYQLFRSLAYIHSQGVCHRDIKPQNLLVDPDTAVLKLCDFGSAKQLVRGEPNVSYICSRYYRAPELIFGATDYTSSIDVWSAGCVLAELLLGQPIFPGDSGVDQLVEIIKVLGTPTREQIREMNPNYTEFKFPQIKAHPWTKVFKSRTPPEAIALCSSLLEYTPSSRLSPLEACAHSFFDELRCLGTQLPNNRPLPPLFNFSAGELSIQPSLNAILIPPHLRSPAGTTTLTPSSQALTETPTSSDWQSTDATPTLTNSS
T3 sequence (Q96RR4 whole entry): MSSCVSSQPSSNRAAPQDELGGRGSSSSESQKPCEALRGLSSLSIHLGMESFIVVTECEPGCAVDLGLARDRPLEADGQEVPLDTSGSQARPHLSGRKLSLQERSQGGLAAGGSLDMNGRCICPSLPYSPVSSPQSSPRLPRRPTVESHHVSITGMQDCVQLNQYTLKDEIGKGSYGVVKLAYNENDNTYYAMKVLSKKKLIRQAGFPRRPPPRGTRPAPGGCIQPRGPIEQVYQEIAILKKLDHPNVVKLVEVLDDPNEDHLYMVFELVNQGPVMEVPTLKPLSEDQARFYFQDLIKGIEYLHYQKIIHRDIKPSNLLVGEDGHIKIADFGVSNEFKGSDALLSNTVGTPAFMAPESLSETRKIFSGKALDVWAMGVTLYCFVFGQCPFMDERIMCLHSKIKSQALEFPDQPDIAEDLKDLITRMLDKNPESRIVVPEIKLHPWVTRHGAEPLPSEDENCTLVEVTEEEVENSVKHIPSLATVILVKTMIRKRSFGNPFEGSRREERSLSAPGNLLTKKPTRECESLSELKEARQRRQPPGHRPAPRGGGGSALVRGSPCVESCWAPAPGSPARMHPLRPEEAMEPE
Chain of CDK9/cyclin T1 (O60563 whole entry, the tested form may be a part): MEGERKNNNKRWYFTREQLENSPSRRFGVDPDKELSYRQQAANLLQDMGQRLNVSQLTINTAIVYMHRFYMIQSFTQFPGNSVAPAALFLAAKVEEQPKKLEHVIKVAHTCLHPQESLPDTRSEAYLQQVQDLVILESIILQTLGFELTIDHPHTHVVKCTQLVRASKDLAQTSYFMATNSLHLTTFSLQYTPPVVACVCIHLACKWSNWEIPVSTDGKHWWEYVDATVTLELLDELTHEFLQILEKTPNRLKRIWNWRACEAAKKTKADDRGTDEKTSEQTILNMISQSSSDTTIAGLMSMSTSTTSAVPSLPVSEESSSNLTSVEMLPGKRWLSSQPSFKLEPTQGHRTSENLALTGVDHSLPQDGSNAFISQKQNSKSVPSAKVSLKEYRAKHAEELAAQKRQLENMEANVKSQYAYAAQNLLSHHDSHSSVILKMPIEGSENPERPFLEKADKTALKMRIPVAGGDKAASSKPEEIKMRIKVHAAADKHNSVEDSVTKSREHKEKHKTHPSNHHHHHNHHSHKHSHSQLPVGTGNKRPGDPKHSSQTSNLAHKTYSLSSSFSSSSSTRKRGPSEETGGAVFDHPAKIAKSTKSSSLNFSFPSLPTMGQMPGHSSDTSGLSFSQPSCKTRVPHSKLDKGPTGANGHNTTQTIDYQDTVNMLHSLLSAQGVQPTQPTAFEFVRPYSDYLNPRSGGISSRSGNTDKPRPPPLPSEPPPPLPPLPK
Chain of CDK9/cyclin T1 (P50750 whole entry, the tested form may be a part): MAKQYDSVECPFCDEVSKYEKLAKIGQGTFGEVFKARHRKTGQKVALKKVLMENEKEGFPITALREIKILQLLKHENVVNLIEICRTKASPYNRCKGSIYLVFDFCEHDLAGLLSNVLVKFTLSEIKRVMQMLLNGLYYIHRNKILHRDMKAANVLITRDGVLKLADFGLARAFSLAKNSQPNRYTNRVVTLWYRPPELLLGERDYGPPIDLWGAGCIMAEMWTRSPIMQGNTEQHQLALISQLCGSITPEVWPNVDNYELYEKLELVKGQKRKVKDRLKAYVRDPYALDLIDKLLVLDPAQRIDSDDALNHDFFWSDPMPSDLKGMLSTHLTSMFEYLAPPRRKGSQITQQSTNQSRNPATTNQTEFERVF

`O=S(=O)(c1ccccc1)N(CC(F)(F)F)c1ccc(C(O)(C(F)(F)F)C(F)(F)F)cc1` [T091317] showed an IC50 in series [1] of 651 nM.

`CCOC(=O)Nc1ccc2c(c1)N(C(=O)CN(CC)CC)c1ccccc1CC2`: the half-inhibitory concentration (IC50) in series [1] was determined as 162 nM; in series [3] it was 258 nM. The inhibition at 30 µM in series [2] was determined as 100%.

For the compound `Cc1cc(C)n2c1C=C1C=CC(CCC(=O)N3CCC(C(=O)Nc4ncc(SCc5ncc(C(C)(C)C)o5)s4)CC3)=[N+]1[B-]2(F)F`, in [4], the inhibition at […] was found to be 95.9%. Further, the Kd was found to be 340 nM in series [5]; 5.1 nM in [6]; 300 nM in series [7]; 530 nM in series [8]; 4.5 nM in series [9]; 550 nM in [10]. The concentration for half-maximal inhibition (IC50) in series [3] stood at 224 nM. In addition, the “fold change (FC)” value worked out at 9.1 in series [11] and 9.7 in series [12]. The outcome in series [13] was inactive.

`CC[C@H](Nc1nc(NCc2cnc(C)cc2C)c2ncn(C(C)C)c2n1)[C@@H](C)O` [CYC-065]: the results for the concentration for half-maximal inhibition (IC50) in series [14], in [15] and in [16] were 13200 nM, 11100 nM and 386 nM, respectively.

For `Clc1ccc(-c2nc3sccn3c2/C=N/OCc2ccc(Cl)c(Cl)c2)cc1`, the inhibition at 3 µM in series [17] is 100%. The “inhibition (INH)” value in series [18] is on record as “Active”.

With `Cn1cc(C2=C(c3cn(CCCSC(=N)N)c4ccccc34)C(=O)NC2=O)c2ccccc21` [BISINDOLYLMALEIMIDE IX], the results for the half-inhibitory concentration (IC50) in series [14], in [15] and in series [16] were 161 nM, 0.7 nM and 0.9 nM, respectively.

On to `COc1cc(F)ccc1-c1ncnc(Nc2cccc(C[S@](C)(=N)=O)c2)n1` [ATUVECICLIB], for which the IC50 in series [14] is 1200 nM; in [15], 29.1 nM; in series [16], 2600 nM. The compound also gave an inhibition in [19] of 27.3%.

One may read the IC50 as the midpoint of a concentration-inhibition curve. For orientation: Kd means the equilibrium constant for the complex coming apart.
